Assay results taken from ChEMBL document CHEMBL1144863, “Novel histone deacetylase inhibitors: design, synthesis, enzyme inhibition, and binding mode study of SAHA-based non-hydroxamates” (Bioorg Med Chem Lett, 2003).

Legend:
Histone deacetylase = assay: In vitro inhibitory activity against histone deacetylase (HDAC) isolated from HeLa nuclear extract; type: protein assay, Homo sapiens
[1] = target: Histone deacetylase (Homo sapiens) (UniProt Q13547+O15379+Q9UBN7+Q92769+Q9UQL6+Q8WUI4+Q9BY41+Q96DB2+P56524+Q9UKV0+Q969S8); conditions: at 100 µM
Description: In vitro inhibitory activity against histone deacetylase (HDAC) isolated from HeLa nuclear extract at a concentration of 100 uM

**Q.** Which results are given for `C#CCN(CC#C)CCCCCCC(=O)Nc1ccccc1`?
**A.** IC50 (Histone deacetylase): > 100 µM; inhibition [1]: 8%

**Q.** What does the source list for `O=C(CCCCCCC(=O)Nc1ccccc1)NCCO`?
**A.** IC50 (Histone deacetylase): > 100 µM; inhibition [1]: 4%

**Q.** Which results are given for `NCCNC(=O)CCCCCCC(=O)Nc1ccccc1`?
**A.** IC50 (Histone deacetylase): > 100 µM; inhibition [1]: 3%

**Q.** With `O=C(CCCCCCNC(=O)C(F)(F)F)Nc1ccccc1` as the molecule, how does the IC50 (Histone deacetylase) read?
**A.** > 100 µM

**Q.** And the inhibition [1]?
**A.** 3%

**Q.** For `NNC(=O)NCCCCCCC(=O)Nc1ccccc1`, which IC50 (Histone deacetylase) is on record?
**A.** 650 µM

**Q.** And the inhibition [1]?
**A.** 18%

**Q.** For `CCOC(=O)NCCCCCCC(=O)Nc1ccccc1`, which IC50 (Histone deacetylase) is on record?
**A.** > 100 µM

**Q.** What about the inhibition [1] of the same molecule?
**A.** 19%

**Q.** `C#CCNCCCCCCC(=O)Nc1ccccc1` was tested. Which IC50 (Histone deacetylase) did it give?
**A.** > 100 µM

**Q.** What about the inhibition [1] of the same molecule?
**A.** 16%

**Q.** For `O=C(CCCCCCC(=O)Nc1nccs1)Nc1ccccc1`, which IC50 (Histone deacetylase) is on record?
**A.** > 100 µM

**Q.** What about the inhibition [1] of the same molecule?
**A.** 9%

**Q.** With `O=C(CCCCCCC(=O)Nc1ccccn1)Nc1ccccc1` as the molecule, how does the IC50 (Histone deacetylase) read?
**A.** > 100 µM

**Q.** What about the inhibition [1] of the same molecule?
**A.** 8%

**Q.** Which results are given for `O=C(CBr)NCCCCCCCC(=O)Nc1ccccc1`?
**A.** IC50 (Histone deacetylase): 300 µM; inhibition [1]: 40%

**Q.** Which IC50 (Histone deacetylase) does the source give for `O=C(CCCCCCNC(=O)C(Cl)(Cl)Cl)Nc1ccccc1` here?
**A.** > 100 µM

**Q.** And the inhibition [1]?
**A.** 4%

**Q.** Which IC50 (Histone deacetylase) does the source give for `NNC(=O)NCCCCCC(=O)Nc1ccccc1` here?
**A.** 150 µM

**Q.** What about the inhibition [1] of the same molecule?
**A.** 35%

**Q.** Which results are given for `NNC(=O)NCCCCC(=O)Nc1ccccc1`?
**A.** IC50 (Histone deacetylase): > 1000 µM; inhibition [1]: 12%

**Q.** What does the source list for `O=C(CBr)NCCCCCC(=O)Nc1ccccc1`?
**A.** IC50 (Histone deacetylase): 17 µM; inhibition [1]: 78%

**Q.** `O=C(CCCCCC/C(=N/O)c1ccccn1)Nc1ccccc1` was tested. Which IC50 (Histone deacetylase) did it give?
**A.** > 100 µM

**Q.** And the inhibition [1]?
**A.** 0%

**Q.** `COC(=O)NCCCCCCC(=O)Nc1ccccc1` was tested. Which IC50 (Histone deacetylase) did it give?
**A.** > 100 µM

**Q.** What about the inhibition [1] of the same molecule?
**A.** 12%

**Q.** Which IC50 (Histone deacetylase) does the source give for `O=C(CBr)NCCCCC(=O)Nc1ccccc1` here?
**A.** 121 µM

**Q.** What about the inhibition [1] of the same molecule?
**A.** 47%

**Q.** Which IC50 (Histone deacetylase) does the source give for `O=C(CCCCCCC(=O)OCCO)Nc1ccccc1` here?
**A.** > 100 µM

**Q.** And the inhibition [1]?
**A.** 5%

**Q.** For `NC(=O)NCCCCCCC(=O)Nc1ccccc1`, which IC50 (Histone deacetylase) is on record?
**A.** > 100 µM

**Q.** What about the inhibition [1] of the same molecule?
**A.** 7%

**Q.** What does the source list for `Nc1ccccc1NC(=O)CCCCCCC(=O)Nc1ccccc1`?
**A.** IC50 (Histone deacetylase): 120 µM; inhibition [1]: 48%

**Q.** Which results are given for `O=C(CBr)NCCCCCCC(=O)Nc1ccccc1`?
**A.** IC50 (Histone deacetylase): 14 µM; inhibition [1]: 79%

**Q.** Which IC50 (Histone deacetylase) does the source give for `O=C(CCCCCCC(=O)c1ccccn1)Nc1ccccc1` here?
**A.** > 100 µM

**Q.** And the inhibition [1]?
**A.** 15%
